Our source for the remaining target (mRNA or protein) (fraction of control) values is the OligoGym collection.

These antisense oligonucleotides have a phosphorothioate backbone; sugars and methylation of C are not fully specified.
Further: test concentration or dose not given here.

For the first series, the target named is MAP2K4. Conditions: ASO.
GGCTCGGAGCCGCCATTGTT had a remaining target (mRNA or protein) (fraction of control) of 0.56.

Sequence GTCTGATGTAGCAGCGATAT showed a remaining target (mRNA or protein) (fraction of control) of 0.53. On the same count and under the same terms, for GTGAAATCCCAGTGTTGTTC the value was 0.91; for GTTCATCACAAAAGAGCAGG, 0.89.

With TAGAAATGAATTTAAGATGT, the remaining target (mRNA or protein) (fraction of control) is no less than 1. The same measure, in the same setting: the value for TAGAGTCTGATGTAGCAGCG was 0.79; that for TAGCAGCGATATCAATCGAC was 0.55; that for TATCACATCAGTAATCTATT was no less than 1. Same read-out and setting: the value for TATTTTAATGTTCACCTCTT was no less than 1; that for TGATGTAGCAGCGATATCAA was 0.72.

In turn, TGTGTCCTTCCAGGATTTGG had a remaining target (mRNA or protein) (fraction of control) of 0.7. Still for that read-out and setting: the value for TTTAAACACTAGCGATTATG was no less than 1. Still for that read-out and setting: for TTTGTTTTAATAAAGATACA the value was 0.88.

In the next series the target is BIRC3. Conditions: ASO.
In turn, TGTGTGACTCATGAAGCT gave a remaining target (mRNA or protein) (fraction of control) of 0.77.

For TTAACGGAATTTAGACTC, the remaining target (mRNA or protein) (fraction of control) was no less than 1.

TTAAGGAAGAAATACACA had a remaining target (mRNA or protein) (fraction of control) of no less than 1. The same measure, in the same setting: for TTCAGTGGCATTCAATCA the value was 0.77; for TTTCTCTCTCCTCTTCCC, 0.9. On the same count and under the same terms, for TTTGACATCATCACTGTT the value was no less than 1.

For a further series, the target named is SMAD4. Conditions: ASO.
As to AAAGCAGAAGAAAAGTGA, the remaining target (mRNA or protein) (fraction of control) was no less than 1. AACACCAATACTCAGGAG showed a remaining target (mRNA or protein) (fraction of control) of no less than 1. In turn, AACATCACCTTCACCTTT returned a remaining target (mRNA or protein) (fraction of control) of 0.45. Still for that read-out and setting: the value for AATCCTTTCCGACCAGCC was 0.26; that for ACAGAAGAATACAACTAC was no less than 1; that for ACCTTTCCCTATGAATGA was 0.65.

Sequence ACGATTACTTGGTGGATG had a remaining target (mRNA or protein) (fraction of control) of 0.88. On the same count and under the same terms, for ACTCTCTCCACCTTGTCT the value was 0.57. On the same count and under the same terms, the value for AGACACTATCACATTTTA was no less than 1; that for ATCCTTTGGAAACAGTGA was no less than 1. The same measure, in the same setting: the value for CAATGGCTTCTGTCCTGT was no less than 1; that for CAGGTGGTAGTGCTGTTA was no less than 1. For CAGTAAATCCATTCTGCT, the remaining target (mRNA or protein) (fraction of control) is no less than 1.

The sequence CAGTAACAATAGGGCAGC yielded a remaining target (mRNA or protein) (fraction of control) of no less than 1.

Regarding CATACATAACAGGTGAAG, the remaining target (mRNA or protein) (fraction of control) is 0.91.

Regarding CATACTTGATGGAGCATT, the remaining target (mRNA or protein) (fraction of control) is no less than 1.

In turn, CATAGGCGGGTGGTGCTG came in with a remaining target (mRNA or protein) (fraction of control) of no less than 1. On the same count and under the same terms, for CCTTCACTATGGCTGCCC the value was 0.3; for CTGTATGGTAACACATTT, no less than 1; for GAATGAAGGAAAAGAAAT, no less than 1. On the same count and under the same terms, for GAATTTCAATCCAGCAAG the value was no less than 1; for GACAGGCATCATTACTTG, no less than 1. On the same count and under the same terms, for GATGACACTGACGCAAAT the value was no less than 1; for GGCAGCAAACACATTTTC, no less than 1. As for GTAGTCCACCATCCTGAT, the remaining target (mRNA or protein) (fraction of control) was no less than 1.

With GTGGACAACGATGGCTGT, the remaining target (mRNA or protein) (fraction of control) is no less than 1. The same measure, in the same setting: the value for GTGTTTCTTTGATGCTCT was no less than 1; that for GTTTCTCCTAATCTTCAA was no less than 1; that for TAAAATCAGCAATACTGG was 0.79. Same read-out and setting: the value for TACAACTCGTTCGTAGTG was no less than 1; that for TAGGTAGAGTGACGCTGC was no less than 1. The same measure, in the same setting: the value for TCTGTCTAAGTAGTAACT was no less than 1. As to TGAAGCCTCCCATCCAAT, the remaining target (mRNA or protein) (fraction of control) amounted to 0.9. Same read-out and setting: for TGACAAGTTCTGAAGAGG the value was no less than 1; for TGACGCTGCTTTTAGTGT, no less than 1; for TGGATGAAAGATTACAAT, no less than 1. On the same count and under the same terms, for TTCACAAAACTCATCCTG the value was no less than 1; for TTGGGAAAGTTGGCAGTG, no less than 1.

TTTAAGGGATTCTCAATA displayed a remaining target (mRNA or protein) (fraction of control) of no less than 1. Same read-out and setting: for TTTGATGCTCTGTCTTGG the value was no less than 1.
